Measured values as given in US11382889B2, “NRF2 activators for the prevention and/or treatment of axonal degeneration” (priority 2018, dated 2022).
Counter-ions that a name gives are not always drawn.

Columns and labels:
[1] = system: Abcd1− mice spinal cord; test: Inflammatory profile (quantitative RT-PCR) and oxidative lesions (GC/MS) in Abcd1− mice spinal cord; format: in vivo; details: 12 months of age
Method: a) Th1 (Nfκb2, Il1β, Il6, Tnfα, Tnfrsf1a, Ccl5, Cxcl9, Cxcl10, Ccr6) and b) Th2 (Fizz1, Chil3, Cxcl12, Il10, Igf1, Mif, Tgfβ1) inflammatory profile in WT (n=8), Abcd1^− (n=8) and Abcd1^−+DMF (n=8) mice spinal cord at 12 months of age. Cytokines, chemokines and other inflammation-related genes expression was measured by quantitative RT-PCR. Gene expression levels were normalized relative to Rplp0. Quantification is depicted as fold change to WT mice. c) Oxidative lesions to lipids and proteins in WT (n=5), Abcd1^− (n=5) and Abcd1^−+DMF (n=5) mice spinal cord at 12 months of age. AASA, CEL, CML and MDAL levels were measured by GC/MS. Quantification is represented as fold change to WT mice. Data are shown as mean±SD (*p<0.05, **p<0.01, ***p<0.001 after one-way ANOVA test followed by Tukey's post-hoc test; p<0.05, p<0.01, p<0.001 after non-parametric Kruskal-Wallis' test).
Cages contained 3 to 5 animals.
We used two X-ALD mouse models in this study. We characterized the biochemical signs of adult X-ALD in Abcd1^− mice at 12 months of age. These mice show biochemical signs of pathology, including oxidative stress and energetic homeostasis impairment, before the first clinical signs of AMN-like pathology (axonopathy and locomotor impairment) appear at 20 months.
For biochemical analysis, we killed the mice and stored the tissues at −80° C. after snap-freezing them in liquid nitrogen. For histological analysis, spinal cord was harvested from 18-month-old mice after perfusing them with 4% paraformaldehyde (PFA; Sigma-Aldrich, Ref. 441244) in 0.1 M phosphate buffer pH 7.4. Histological and behavioural tests were performed in a blind way with respect to the animal's genotype and for the treatment administered.
In Abcd1^− mouse, a functional genomics assay detected NFκB-mediated inflammatory pathway activation in Abcd1^− mouse spinal cord, and increased expression of several proinflammatory genes. Regarding AMN patients, we have recently described a general dysregulation of inflammatory pathways in peripheral blood mononuclear cells (PBMCs) and plasma from AMN patients. As DMF is a classical immunomodulatory drug, we examined its effects on mRNA expression of several inflammation-related genes in Abcd1^− mice spinal cord.
Nuclear factor kappa B subunit 2 (Nfκb2), which belongs to the non-canonical NFκB pathway, as well as the majority of M1 markers were increased in Abcd1^− mouse spinal cord, including interleukin 1 beta (Il1β), tumour necrosis factor alpha (Tnfα), tumour necrosis factor receptor superfamily member 1a (Tnfrsf1a), chemokine (C-C motif) ligand 5 (Ccl5), chemokine (C-X-C motif) ligand 9 (Cxcl9), chemokine (C-X-C motif) ligand 10 (Cxcl10) and chemokine (C-C motif) receptor type 6 (Ccr6) (FIG. 2a). […] Only few of them were decreased in Abcd1^− mouse spinal cord: interleukin 6 ([…]), resistin like alpha (Retnla, also called Fizz1) and macrophage migration inhibitory factor (Mif) (FIG. 2a-b).

[2] = system: Abcd1−/Abcd2−/− (DKO) mice; test: Bar cross and treadmill tests in Abcd1−/Abcd2−/− (DKO) mice; format: in vivo; details: 18 months of age, end of treatment, DMF 100 mg/kg in chow for 6 months
Excerpt: a-x) Immunohistological analysis of axonal pathologies performed in 18-month-old WT, Abcd1^−/Abcd2^−/− (DKO) and Abcd1^−/Abcd2^−/− mice treated with DMF (DKO+DMF) (n=5 per genotype and condition). Spinal cord immunohistological sections were processed for (a-c) Iba1, (d-f) GFAP, (g-i) Synaptophysin, (j-l) APP, (m-o) Sudan black, (p-r) 8-oxo-dG, (s-u) CYT C and (v-x) SMI-32 immunostaining. Representative images for (a, d, g, j, m, p, s, v) WT, (b, e, h, k, n, q, t, w) DKO, and (c, f, i, l, o, r, u, x) DKO+DMF are shown. Scale bars=25 μm (a-r) and […] (s-x). y) Quantification of synaptophysin and APP accumulations in spinal cord immunohistological sections of WT (n=5), DKO (n=5) and DKO+DMF (n=5) mice. z) Bar-cross and treadmill tests performed on 18-month-old WT (n=14), Abcd1^−//Abcd2^−/− (DKO) (n=16) and Abcd1^−//Abcd2^−/− mice treated with DMF (DKO+DMF) (n=14). […] Values are expressed as mean±SD (*p<0.05, **p<0.01, ***p<0.001 after one-way ANOVA test followed by Tukey's post hoc test; p<0.05, p<0.001 after non-parametric Kruskal-Wallis' test).
To address the therapeutic effect of DMF, we assessed the clinical signs of AMN in Abcd1^−/Abcd2^−/− (DKO) mice, which display increased VLCFA accumulation in the spinal cord, higher levels of oxidative damage to proteins, and a more severe AMN-like pathology with an earlier onset at 12 months of age. […]

[3] = Abcd1− mouse spinal cord, DMF 100 mg/kg/day in chow

## COC(=O)/C=C/C(=O)OC [DMF, dimethyl fumarate]
[1]; Abcd1− mice spinal cord, DMF 100 mg/kg/day in chow for 4 months
  oxidative damage to proteins and lipids (AASA, CEL, CML, MDAL): prevents
[1]; [3]
  Il1β and Chil3 mRNA: exacerbated the induction
  Tnfrsf1a, Cxcl9 and Fizz1 mRNA: no effect
  interleukin 10 (Il10) mRNA: upregulated
  mRNA levels of Nfκb2, Il6, Tnfα, Ccl5, Cxcl10, Ccr6, Mif, Cxcl12, Tgfβ1, Igf1: normalizing
[2]
  bar cross test (number of slips and time to cross the bar): behaved similar to WT mice
  treadmill test (number and duration of shocks): improved the performance of DKO mice in this test, up to the level of WT mice
